Assay results from patent US9636317B2, “Compositions and methods of use of phorbol esters” (priority 2007, dated 2017).

Experiments:
primary AML = settings: pharmacological interruption of ERK signaling; cited from earlier work
primary AML cells = assay: Primary AML cultures ex vivo: cell viability, apoptosis assays and Western analysis of ERK; type: cell-based, human; settings: primary AML samples
From the text: In addition to protein kinase C and ERK activation, TPA is a known inducer of NF-κB, a pro-survival transcription factor often constitutively active in AML blasts and leukemic stem cells.

HIV = settings: cited from earlier work
[1] = most polar organic solvents and water; cited from earlier work

SMILES: O=C(NOCC1CC1)c1ccc(F)c(F)c1Nc1ccc(I)cc1Cl [PD 184352]
- primary AML survival (primary AML): decreased primary AML survival

SMILES: C[C@@H]1C[C@H]2[C@@H]3CCC4=CC(=O)C=C[C@]4(C)[C@@]3(F)[C@@H](O)C[C@]2(C)[C@@]1(O)C(=O)CO [dexamethasone, reference compound]
- effect on TPA cytotoxicity (primary AML cells): enhance TPA cytotoxicity

SMILES: COc1cccc(-c2cc(=O)c3ccccc3o2)c1N [PD98059]
- primary AML survival (primary AML): decreased primary AML survival

SMILES: CC(=O)O[C@@]12C[C@@H](C)[C@@]3(O)[C@@H](C=C(CO)C[C@]4(O)C(=O)C(C)=C[C@@H]34)[C@@H]1C2(C)C [Prostratin, 12-deoxyphorbol 13-acetate]
- HIV induced cell killing and viral replication (HIV): some effectiveness for inhibiting HIV induced cell killing and viral replication
- effect on chronically-infected cell lines (HIV): little or no effect on chronically-infected cell lines
- viral expression in latently-infected cell lines (HIV): activated viral expression in latently-infected cell lines

SMILES: CC1=C[C@H]2[C@@]3(O)[C@H](C)[C@@H](O)[C@]4(O)[C@H]([C@@H]3C=C(CO)C[C@]2(O)C1=O)C4(C)C [Phorbol]
- solubility [1]: well soluble in most polar organic solvents and in water

SMILES: N#CC(=C(/N)Sc1ccccc1N)/C(C#N)=C(\N)Sc1ccccc1N [U0126]
- primary AML survival (primary AML): decreased primary AML survival
